In ChEMBL document CHEMBL1141053, “Synthesis and SAR of novel oxazolidinones: discovery of ranbezolid” (2005) one finds MIC and ED50 data, which are given here for 14 compounds.

Molecules are shown by their SMILES. ≈ marks a conversion by molar mass, not a printed value.

Type in all cases: functional
In assay [1] the test system is Enterococcus faecalis. In words: In vitro minimum inhibitory concentration against Enterococcus faecalis ATCC 29212 after incubation in air at 35 degree C for 24 hr using agar dilution method. The note with it: ATCC 29212, 24 h.
Assay [2] relates to Streptococcus pneumoniae. In words: In vitro minimum inhibitory concentration against Streptococcus pneumoniae ATCC 6303 after incubation in air at 35 degree C for 24 hr using agar dilution method. The note with it: ATCC 6303, 24 h.
For assay [3], the system named is Streptococcus pyogenes. In words: In vitro minimum inhibitory concentration against Streptococcus pyogenes ATCC 19615 after incubation in air at 35 degree C for 24 hr using agar dilution method. The note with it: ATCC 19615, 24 h.
The test system of assay [4] is Enterococcus faecium. In words: In vitro minimum inhibitory concentration against vancomycin-resistant Enterococcus faecium 6A after incubation in air at 35 degree C for 24 hr using agar dilution method.
Assay [5] concerns Staphylococcus aureus. Kind of assay: In vitro minimum inhibitory concentration against Staphylococcus aureus ATCC 25923 after incubation in air at 35 degree C for 24 hr using agar dilution method. The note with it: ATCC 25923, 24 h.
In assay [6] the test system is Staphylococcus aureus. Kind of assay: In vitro minimum inhibitory concentration against methicillin-resistant Staphylococcus aureus 562 after incubation in air at 35 degree C for 24 hr using agar dilution method.
Assay [7] has as its system Staphylococcus aureus. Kind of assay: In vivo effective dose (on day 7-post-infection) against methicillin-resistant Staphylococcus aureus 562 infected mice upon peroral administration at 30 min and 4 hr post-infection. The note with it: po.

For the compound `CC(=O)NC[C@H]1CN(c2ccc(N3CCN(Cc4ccoc4[N+](=O)[O-])CC3)c(F)c2)C(=O)O1`, the MIC is 4 µg/mL (≈ 8.67 µM) in assay [1]; 1 µg/mL (≈ 2.17 µM) in assay [2]; 1 µg/mL (≈ 2.17 µM) in assay [3]; 4 µg/mL (≈ 8.67 µM) in assay [4]; 8 µg/mL (≈ 17.3 µM) in assay [5]; 4 µg/mL (≈ 8.67 µM) in assay [6].

With `CC(=O)NC[C@H]1CN(c2ccc(N3CCN(Cc4ccc(C(=O)O)o4)CC3)c(F)c2)C(=O)O1`, the MIC in assay [1], in assay [2], in assay [3], in assay [4], in assay [5] and in assay [6] was over 16 µg/mL throughout.

On to `CC(=O)NC[C@H]1CN(c2ccc(N3CCC(N(C)c4ccc([N+](=O)[O-])o4)C(C)C3)c(F)c2)C(=O)O1` (stereo partly drawn), for which the MIC in assay [1], in assay [2], in assay [3], in assay [4], in assay [5] and in assay [6] was over 16 µg/mL each time.

In the case of `CC(=O)NC[C@H]1CN(c2ccc(N3CCC(Nc4ccc([N+](=O)[O-])o4)CC3)c(F)c2)C(=O)O1`, the MIC in assay [1] amounted to 0.5 µg/mL (≈ 1.08 µM); in assay [2] it was 2 µg/mL (≈ 4.33 µM); in assay [3], 0.25 µg/mL (≈ 0.542 µM); in assay [4], 0.5 µg/mL (≈ 1.08 µM); in assay [5], 1 µg/mL (≈ 2.17 µM); in assay [6], 1 µg/mL (≈ 2.17 µM).

Take `CN[C@H](CC(C)C)C(=O)N[C@H]1C(=O)N[C@@H](CC(N)=O)C(=O)N[C@H]2C(=O)N[C@H]3C(=O)N[C@H](C(=O)N[C@H](C(=O)O)c4cc(O)cc(O)c4-c4cc3ccc4O)[C@H](O)c3ccc(c(Cl)c3)Oc3cc2cc(c3O[C@@H]2O[C@H](CO)[C@@H](O)[C@H](O)[C@H]2O[C@H]2C[C@](C)(N)[C@H](O)[C@H](C)O2)Oc2ccc(cc2Cl)[C@H]1O` [VANCOMYCIN]: the MIC in assay [1] is over 16 µg/mL; in assay [2], 0.5 µg/mL (≈ 0.345 µM). The ED50 in assay [7] turned out to be 8.8 mg/kg.

In the case of `CC(=O)NC[C@H]1CN(c2ccc(N3CCN(Cc4ccco4)CC3)c(F)c2)C(=O)O1`, the MIC stood at 8 µg/mL (≈ 19.2 µM) in assay [1]; 8 µg/mL (≈ 19.2 µM) in assay [2]; 4 µg/mL (≈ 9.6 µM) in assay [3]; 8 µg/mL (≈ 19.2 µM) in assay [4]; 8 µg/mL (≈ 19.2 µM) in assay [5]; 8 µg/mL (≈ 19.2 µM) in assay [6]. In assay [7], this compound returned an ED50 of over 25 mg/kg.

Consider `CC(=O)NC[C@H]1CN(c2ccc(N3CCN(Cc4ccc(C=O)o4)CC3)c(F)c2)C(=O)O1`, for which the MIC in assay [1] was 8 µg/mL (≈ 18 µM); in assay [2], 4 µg/mL (≈ 9 µM); in assay [3], 8 µg/mL (≈ 18 µM); in assay [4], 8 µg/mL (≈ 18 µM); in assay [5] it was 1 µg/mL (≈ 2.25 µM); in assay [6], 1 µg/mL (≈ 2.25 µM). The ED50 in assay [7] was over 25 mg/kg.

`CC(=O)NC[C@H]1CN(c2ccc(N3CCC(N(C)c4ccc([N+](=O)[O-])o4)CC3)c(F)c2)C(=O)O1`: the MIC in assay [1] is 0.25 µg/mL (≈ 0.526 µM); in assay [2], 0.5 µg/mL (≈ 1.05 µM); in assay [3], 0.125 µg/mL (≈ 0.263 µM); in assay [4], 0.5 µg/mL (≈ 1.05 µM); in assay [5], 1 µg/mL (≈ 2.1 µM); in assay [6], 0.5 µg/mL (≈ 1.05 µM). Moreover, in assay [7], the ED50 turned out to be 7.43 mg/kg.

Take `CC(=O)NC[C@H]1CN(c2ccc(N3CCN(Cc4ccc(CO)o4)CC3)c(F)c2)C(=O)O1`: the MIC in assay [1], in assay [2], in assay [3], in assay [4], in assay [5] and in assay [6] was over 16 µg/mL in each case.

`CC(=O)NC[C@H]1CN(c2ccc(N3CCN(Cc4ccc(/C=N/O)o4)CC3)c(F)c2)C(=O)O1`: the MIC amounted to 16 µg/mL (≈ 34.8 µM) in assay [1]; 8 µg/mL (≈ 17.4 µM) in assay [2]; 4 µg/mL (≈ 8.71 µM) in assay [3]; 8 µg/mL (≈ 17.4 µM) in assay [4]; 2 µg/mL (≈ 4.35 µM) in assay [5]; 2 µg/mL (≈ 4.35 µM) in assay [6].

As for `CC(=O)NC[C@H]1CN(c2ccc(N3CCN(Cc4ccc([N+](=O)[O-])o4)CC3C)c(F)c2)C(=O)O1` (stereo partly drawn), the MIC was determined as 4 µg/mL (≈ 8.41 µM) in assay [1]; 8 µg/mL (≈ 16.8 µM) in assay [2]; 4 µg/mL (≈ 8.41 µM) in assay [3]; 4 µg/mL (≈ 8.41 µM) in assay [4]; 4 µg/mL (≈ 8.41 µM) in assay [5]; 2 µg/mL (≈ 4.21 µM) in assay [6].

Turning to `CC(=O)NC[C@H]1CN(c2ccc(N3CCN(Cc4ccc([N+](=O)[O-])n4C)CC3)c(F)c2)C(=O)O1`, the MIC in assay [1] was found to be 4 µg/mL (≈ 8.43 µM); in assay [2], 8 µg/mL (≈ 16.9 µM); in assay [3], 2 µg/mL (≈ 4.22 µM); in assay [4], 4 µg/mL (≈ 8.43 µM); in assay [5], 4 µg/mL (≈ 8.43 µM); in assay [6], 4 µg/mL (≈ 8.43 µM).

With `CC(=O)NC[C@H]1CN(c2ccc(N3C[C@@H]4[C@H](C3)[C@H]4N(C)c3ccc([N+](=O)[O-])o3)c(F)c2)C(=O)O1`, the minimum inhibitory concentration (MIC) in assay [1] came out at 1 µg/mL (≈ 2.11 µM); in assay [2] it was 2 µg/mL (≈ 4.22 µM); in assay [3], 0.06 µg/mL (≈ 0.127 µM); in assay [4], 2 µg/mL (≈ 4.22 µM); in assay [5], 2 µg/mL (≈ 4.22 µM).

On to `CC(=O)NC[C@H]1CN(c2ccc(N3CCN(Cc4ccc([N+](=O)[O-])s4)CC3)c(F)c2)C(=O)O1`, for which the minimum inhibitory concentration (MIC) was 8 µg/mL (≈ 16.8 µM) in assay [1]; 8 µg/mL (≈ 16.8 µM) in assay [2]; 1 µg/mL (≈ 2.09 µM) in assay [3]; 8 µg/mL (≈ 16.8 µM) in assay [4]; 8 µg/mL (≈ 16.8 µM) in assay [5]; 8 µg/mL (≈ 16.8 µM) in assay [6].
